Laboratory results as given in PubChem BioAssay (NCI).
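Method: 48-hour compound exposure of cells in 96-well plates, five concentrations, linear interpolation of endpoints. TGI denotes the concentration required for complete inhibition of growth.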

Assays:
Assay in all cases: NCI-60 cell line screen, 48 h
HCC-2998 colon = test system: HCC-2998 colon
SNB-75 CNS = test system: SNB-75 CNS
M14 melanoma = test system: M14 melanoma
786-0 renal = test system: 786-0 renal
KM12 colon = test system: KM12 colon
NCI-H23 lung = test system: NCI-H23 lung
COLO 205 colon = test system: COLO 205 colon
HCT-15 colon = test system: HCT-15 colon
SF-539 CNS = test system: SF-539 CNS
NCI-H226 lung = test system: NCI-H226 lung
OVCAR-3 ovarian = test system: OVCAR-3 ovarian
HOP-62 NSCLC = test system: HOP-62 NSCLC
SF-268 CNS = test system: SF-268 CNS
BT-549 breast = test system: BT-549 breast
ACHN renal = test system: ACHN renal
SR leukemia = test system: SR leukemia
MOLT-4 leukemia = test system: MOLT-4 leukemia
DU-145 prostate = test system: DU-145 prostate
TK-10 renal = test system: TK-10 renal
SNB-19 CNS = test system: SNB-19 CNS
T-47D breast = test system: T-47D breast
MCF7 breast = test system: MCF7 breast
UO-31 renal = test system: UO-31 renal
NCI-H522 lung = test system: NCI-H522 lung
CCRF-CEM leukemia = test system: CCRF-CEM leukemia
SK-MEL-5 melanoma = test system: SK-MEL-5 melanoma
HCT-116 colon = test system: HCT-116 colon
PC-3 prostate = test system: PC-3 prostate
RXF 393 renal = test system: RXF 393 renal
NCI/ADR-RES ovarian = test system: NCI/ADR-RES ovarian
UACC-257 melanoma = test system: UACC-257 melanoma
MDA-MB-435 = test system: MDA-MB-435
RPMI-8226 leukemia = test system: RPMI-8226 leukemia
A549 NSCLC = test system: A549 NSCLC
HT29 colon = test system: HT29 colon
HL-60(TB) leukemia = test system: HL-60(TB) leukemia
HS 578T breast = test system: HS 578T breast
MALME-3M melanoma = test system: MALME-3M melanoma
HOP-92 NSCLC = test system: HOP-92 NSCLC
U251 CNS = test system: U251 CNS
LOX IMVI melanoma = test system: LOX IMVI melanoma
SW-620 colon = test system: SW-620 colon
SK-OV-3 ovarian = test system: SK-OV-3 ovarian
MDA-MB-231 breast = test system: MDA-MB-231 breast
EKVX NSCLC = test system: EKVX NSCLC
IGROV1 ovarian = test system: IGROV1 ovarian
SK-MEL-2 melanoma = test system: SK-MEL-2 melanoma
CAKI-1 renal = test system: CAKI-1 renal
OVCAR-4 ovarian = test system: OVCAR-4 ovarian
SF-295 CNS = test system: SF-295 CNS
A498 renal = test system: A498 renal
SN12C renal = test system: SN12C renal
OVCAR-5 ovarian = test system: OVCAR-5 ovarian
OVCAR-8 ovarian = test system: OVCAR-8 ovarian
UACC-62 melanoma = test system: UACC-62 melanoma

Question: What does the source list for `COc1ccc(-n2c(N)c(C#N)c(C#N)c2-c2ccccc2)cc1`?
Answer: TGI (HCC-2998 colon): > 100 µM; TGI (SNB-75 CNS): 68.6 µM; TGI (M14 melanoma): > 100 µM; TGI (786-0 renal): > 100 µM; TGI (KM12 colon): > 100 µM; TGI (NCI-H23 lung): > 100 µM; TGI (COLO 205 colon): > 100 µM; TGI (HCT-15 colon): > 100 µM; TGI (SF-539 CNS): > 100 µM; TGI (NCI-H226 lung): > 100 µM; TGI (OVCAR-3 ovarian): > 100 µM; TGI (HOP-62 NSCLC): > 100 µM; TGI (SF-268 CNS): > 100 µM; TGI (BT-549 breast): > 100 µM; TGI (ACHN renal): > 100 µM; TGI (SR leukemia): > 100 µM; TGI (MOLT-4 leukemia): > 100 µM; TGI (DU-145 prostate): > 100 µM; TGI (TK-10 renal): > 100 µM; TGI (SNB-19 CNS): > 100 µM; TGI (T-47D breast): > 100 µM; TGI (MCF7 breast): > 100 µM; TGI (UO-31 renal): > 100 µM; TGI (NCI-H522 lung): > 100 µM; TGI (CCRF-CEM leukemia): > 100 µM; TGI (SK-MEL-5 melanoma): > 100 µM; TGI (HCT-116 colon): > 100 µM; TGI (PC-3 prostate): > 100 µM; TGI (RXF 393 renal): > 100 µM; TGI (NCI/ADR-RES ovarian): > 100 µM; TGI (UACC-257 melanoma): > 100 µM; TGI (MDA-MB-435): > 100 µM; TGI (RPMI-8226 leukemia): > 100 µM; TGI (A549 NSCLC): > 100 µM; TGI (HT29 colon): > 100 µM; TGI (HL-60(TB) leukemia): > 100 µM; TGI (HS 578T breast): > 100 µM; TGI (MALME-3M melanoma): > 100 µM; TGI (HOP-92 NSCLC): 76.5 µM; TGI (U251 CNS): > 100 µM; TGI (LOX IMVI melanoma): > 100 µM; TGI (SW-620 colon): > 100 µM; TGI (SK-OV-3 ovarian): > 100 µM; TGI (MDA-MB-231 breast): > 100 µM; TGI (EKVX NSCLC): > 100 µM; TGI (IGROV1 ovarian): > 100 µM; TGI (SK-MEL-2 melanoma): > 100 µM; TGI (CAKI-1 renal): > 100 µM; TGI (OVCAR-4 ovarian): 93.2 µM; TGI (SF-295 CNS): > 100 µM; TGI (A498 renal): > 100 µM; TGI (SN12C renal): > 100 µM; TGI (OVCAR-5 ovarian): > 100 µM; TGI (OVCAR-8 ovarian): > 100 µM; TGI (UACC-62 melanoma): > 100 µM
